# Experimental data taken from patent US20070111988A1, “Selective estrogen receptor modulators” (ELI LILLY AND COMPANY, priority 2004, published 2007).
# Legend:
# mature F344 female rats = assay: 10-Day Rat Hormone (Ovarian Stimulation) Screen; assay type: in vivo; settings: oral gavage 10 days, serum about 2 hours after the 10th dose, RIA
# Experimental: 10-Day Rat Hormone (Ovarian Stimulation) Screen: An initial, first screen for ovarian toxicity is conducted using a 10-day rat hormone study to measure estradiol and luteinizing hormone levels after compound administration. This screen is conducted by administering compound by oral gavage for 10 days to mature (9-10 week old) F344 female rats. Trunk blood is collected by rapid decapitation for evaluation of LH and estradiol levels approximately 2 hours after the 10th dose. Serum, obtained by centrifugation, is removed and stored frozen below −60° C. until assayed. Serum levels of LH and estradiol are measured using radioimmunoassay (RIA) methods.
# Rat LH primary antibody and reference preparations (rat LH:RP-3) are obtained from Dr. A. F. Parlow, Director, Pituitary Hormones and Antisera Center, Harbor-UCLA Medical Center, Torrance, Calif. The LH assay upper limits of detection are 30 ng/mL and the lower limits of detection are 0.1 ng/mL for the 100 μl samples.
# E2 Clinical Assays. DiaSorin s.r.l., Saluggia (Vercelli), Italy. The upper limit of detection is 1000 pg/mL and the lower limit of detection is 5 pg/mL.
# [1] = tested on: Ishikawa human endometrial tumor cells; assay: Ishikawa Cell Proliferation Assay, agonist mode (alkaline phosphatase readout); assay type: cell-based; settings: for stimulation compared with tamoxifen: compound alone; for Emax: Homo sapiens, Ishikawa, versus the response to tamoxifen, read-out: relative % efficacy
# Experimental: (§1) Ishikawa Cell Proliferation Assay: This assay measures cell proliferation (using an alkaline phosphatase readout) in both an agonist mode in the presence of a compound of the present invention alone, and in an antagonist mode in which the ability of a compound of the present invention to block estradiol stimulation of growth is measured.
# (§2) Ishikawa human endometrial tumor cells are maintained in MEM (minimum essential medium, with Earle's salts and L-Glutamine, Gibco BRL, Gaithersburg, Md.), supplemented with 10% fetal bovine serum (FBS) (V/V), (Gibco BRL). One day prior to assay, growth media is changed to assay medium, DMEM/F-12 (3:1) (Dulbecco's Modified Eagle Medium:Nutrient Mixture F-12, 3:1 Mixture, phenol red-free, Gibco BRL) supplemented with 5% dextran coated charcoal stripped fetal bovine serum (DCC-FBS) (Hyclone, Logen, Utah), L-Glutamine (2 mM), MEM sodium pyruvate (1 mM), HEPES (N-[2-hydroxyethyl]piperazine-N′-[2-ethanesulfonic acid] 2 mM) all from Gibco BRL). After an overnight incubation, Ishikawa cells are rinsed with Dulbecco's Phosphate Buffered Saline (1×) (D-PBS) without Ca^+2 and Mg^+2 (Gibco BRL), and trypsinized by a 3 minute incubation with 0.25% Trypsin/EDTA, phenol red-free (Gibco BRL). Cells are resuspended in assay medium and adjusted to 250,000 cells/mL. Approximately 25,000 cells in a 100 ul media are added to flat-bottom 96 wells microculture plates (Costar 3596) and incubated at 37° C. in a 5% CO2 humidified incubator for 24 hours. The next day, serial dilutions of compounds are prepared in assay medium (at 6 times the final concentration in the assay). The assay is run in dual mode, agonist and antagonist modes.
# For the agonist mode, plates receive 25 μl/well of assay medium followed by 25 μl/well of a diluted compound of the present invention (at 6× the final concentrations). For the antagonist mode, plates receive 25 μl/well of 6 nM E2 (β-Estradiol, Sigma, St. Louis, Mo.) followed by 25 μl/well of a diluted compound of the present invention (at 6× the final concentrations). After an additional 48-hour incubation at 37° C. in a 5% CO2 humidified incubator, media is aspirated from wells and 100 μl fresh assay medium is added to each microculture. Serial dilutions of compounds are prepared and added to the cells as described above. After an additional 72 hour incubation at 37° C. in a 5% CO2 humidified incubator, the assay is quenched by removing media and rinsing plates twice in Dulbecco's Phosphate Buffered Saline (1×) (D-PBS) (Gibco BRL). The plates are dried for 5 minutes and frozen at −70° C. for at least 1 hour. The plates are then removed from the freezer and allowed to thaw at room temperature. To each well, 100 μl of 1-Step™ PNPP (Pierce Chemical Company, Rockford, Ill.) is added. After a 20-minute incubation, plates are read on a spectophotometer at 405 nm.
# (§3) The data is fitted to a linear interpolation to derive EC50 (for agonist mode) or IC50 (for antagonist mode) values. For the antagonist mode, a % efficacy for each compound is calculated versus E2 (1 nM) alone. For the agonist mode, a % efficacy for each compound is calculated versus the response to tamoxifen.
# [2] = tested on: estrogenic stimulation of the uterus in immature female rats; assay: 3-Day Rat Uterus Antagonist Assay; assay type: in vivo; settings: 3 days, with E2 0.1 mg/kg; for inhibition of the estrogen-induced response (uterine weight/body weight ratio): 1.0 mg/kg oral; for % antagonism / ED50: oral
# Description: 3-Day Rat Uterus Antagonist Assay: This model for uterine antagonism utilizes immature (3 week old) female rats that are highly sensitive to estrogenic stimulation of the uterus given that their circulating estrogen levels are prepubertal. The uteri from immature rats are fully responsive to exogenous estrogen, yet are quiescent in the absence of exogenous estrogen. Administration of exogenous estrogen to immature rats produces a reliable elevation of uterine weight, which can be used to study uterine antagonist effects. The rats are treated with both estradiol and 4 different concentrations of a compound of the present invention for 3 days and then uterine wet weights are measured.
# Nineteen to twenty-one day old (or 45-50 g) female rats are orally treated with E2 (0.1 mg/kg, a maximal stimulatory estrogenic stimulus for reliably increasing uterine weight) and 10, 1.0, 0.1 and 0.01 mg/kg test compound for 3 days, 6 rats per group. Test compounds are dissolved in 20% β-hydroxycyclodextrin and administered by oral gavage in a volume of 0.2 mL daily (15 min. prior to the ethynyl estradiol gavage). A vehicle control, E2 alone and E2+raloxifene are also done as controls. The animals are fasted overnight following the final dose. On the following morning, the animals are weighed, then euthanized (by carbon dioxide asphyxiation) and the uteri rapidly collected (via a mid-line ventral incision) and weighed.
# Uterine weight/body weight ratios (UWR) are calculated for each animal. The percent inhibition of the estrogen-induced response is then calculated by the following formula: percent inhibition=100×(UWRestrogen−UWRtest compound/UWRestrogen−UWRcontrol). ED50 values are derived from a semi-log regression analysis of the linear aspect of the dose response curve. Both the UWR data and the percent inhibition data are statistically analyzed by one way analysis of variance (ANOVA) with post-hoc testing by Fisher's PLSD when indicated by a p≦0.05. Statistical analyses are performed using the Statview® 4.0 software package.
# [3] = tested on: uterus of mature, ovariectomized rats; assay: 4-Day OVX Rat Uterine Agonist Assay; assay type: in vivo; settings: 4 days of treatment, 3 doses
# Experimental: Seventy-five day old rats are ovariectomized and treatment is started 14 days later when circulating estradiol levels have reached minimal levels. After 4 days of treatment with 3 doses of a compound of the present invention, (6 rats per group) body weight, uterine wet weight and uterine eosinophil peroxidase (EPO) activity are measured. Cholesterol levels are also measured to compare relative ability to lower cholesterol with other SERMs. If there is any question of uterine stimulation, histological examination will determine epithelial cell height.
# [4] = tested on: Ishikawa human endometrial tumor cells; assay: Ishikawa Cell Proliferation Assay, antagonist mode (block of estradiol stimulation); assay type: cell-based; settings: for IC50: 1 nM E2; for Emax: versus E2 (1 nM) alone, read-out: % efficacy
# Experimental: as §1, §2
# For the agonist mode, plates receive 25 μl/well of assay medium followed by 25 μl/well of a diluted compound of the present invention (at 6× the final concentrations). For the antagonist mode, plates receive 25 μl/well of 6 nM E2 (β-Estradiol, Sigma, St. Louis, Mo.) followed by 25 μl/well of a diluted compound of the present invention (at 6× the final concentrations). After an additional 48-hour incubation at 37° C. in a 5% CO2 humidified incubator, media is aspirated from wells and 100 μl fresh assay medium is added to each microculture. Serial dilutions of compounds are prepared and added to the cells as described above. […] After a 20-minute incubation, plates are read on a spectophotometer at 405 nm.
# as §3
SMILES,stimulation compared with tamoxifen [1],inhibition of the estrogen-induced response (uterine weight/body weight ratio) [2],also measured
"OCc1ccc2c(c1)OC(c1ccc(OCCN3CCCCC3)cc1)c1c-2ccc2cc(O)ccc12 (racemic) [Example 37, 8-Hydroxymethyl-5-[4-(2-piperidin-1-yl-ethoxy)-phenyl]-5H-6-oxa-chrysen-2-ol]",less stimulatory than tamoxifen,inhibit the estrogen-induced response,circulating LH levels (mature F344 female rats): did not significantly elevate; circulating estradiol levels (mature F344 female rats): did not significantly elevate; % antagonism [2]: 89%; ED50 [2]: 0.06 mpk
"Cl.NC(=O)c1cccc(-c2ccc3cc(O)ccc3c2Oc2ccc(OCCN3CCCCC3)cc2)c1 [Example 1, 3-{6-Hydroxy-1-[4-(2-piperidin-1-yl-ethoxy)-phenoxy]-naphthalen-2-yl}-benzamide hydrochloride]",less stimulatory than tamoxifen,–,–
"COC(=O)c1cccc(-c2ccc3cc(O)ccc3c2Oc2ccc(OCCN3CCCCC3)cc2)c1.Cl [Example 2, 3-{6-Hydroxy-1-[4-(2-piperidin-1-yl-ethoxy)-phenoxy]-naphthalen-2-yl}-benzoic acid methyl ester hydrochloride]",less stimulatory than tamoxifen,–,–
"O=C(O)C(F)(F)F.O=C(O)c1cccc(-c2ccc3cc(O)ccc3c2Oc2ccc(OCCN3CCCCC3)cc2)c1 [Example 3, 3-{6-Hydroxy-1-[4-(2-piperidin-1-yl-ethoxy)-phenoxy]-naphthalen-2-yl}-benzoic acid trifluoroacetate]",less stimulatory than tamoxifen,–,–
"COC(=O)c1ccc(-c2ccc3cc(O)ccc3c2Oc2ccc(OCCN3CCCCC3)cc2)cc1.Cl [Example 5, 4-{6-Hydroxy-1-[4-(2-piperidin-1-yl-ethoxy)-phenoxy]-naphthalen-2-yl}-benzoic acid methyl ester hydrochloride]",less stimulatory than tamoxifen,inhibit the estrogen-induced response,circulating LH levels (mature F344 female rats): did not significantly elevate; circulating estradiol levels (mature F344 female rats): did not significantly elevate; uterine eosinophil peroxidase (EPO) activity [3]: did not cause any dose-related statistically significant increase in EPO activity
"Cl.O=C(O)c1ccc(-c2ccc3cc(O)ccc3c2Oc2ccc(OCCN3CCCCC3)cc2)cc1 [Example 6, 4-{6-Hydroxy-1-[4-(2-piperidin-1-yl-ethoxy)-phenoxy]-naphthalen-2-yl}-benzoic acid hydrochloride]",less stimulatory than tamoxifen,–,–
"CN(C)C(=O)c1cccc(-c2ccc3cc(O)ccc3c2Oc2ccc(OCCN3CCCCC3)cc2)c1.Cl [Example 8, 3-{6-Hydroxy-1-[4-(2-piperidin-1-yl-ethoxy)-phenoxy]-naphthalen-2-yl}-N,N-dimethylbenzamide, hydrochloride salt]",less stimulatory than tamoxifen,inhibit the estrogen-induced response,Emax [1]: 15%; IC50 [4]: 9 nM; Emax [4]: 95%
"Cl.O=C1NCc2cc(-c3ccc4cc(O)ccc4c3Oc3ccc(OCCN4CCCCC4)cc3)ccc21 [Example 11, 5-{6-Hydroxy-1-[4-(2-piperidin-1-yl-ethoxy)-phenoxy]-naphthalen-2-yl}-2,3-dihydro-isoindol-1-one Hydrochloride]",less stimulatory than tamoxifen,inhibit the estrogen-induced response,% antagonism [2]: 79%; ED50 [2]: 0.3 mpk
"O=C(O)C(F)(F)F.O=C(O)c1cccc2c1OC(c1ccc(OCCN3CCCCC3)cc1)c1c-2ccc2cc(O)ccc12 (centres unmarked) [Example 35, 2-Hydroxy-5-[4-(2-piperidin-1-yl-ethoxy)-phenyl]-5H-6-oxa-chrysene-7-carboxylic acid trifluoroacetate]",less stimulatory than tamoxifen,–,Emax [1]: 25%; IC50 [4]: 36 nM; Emax [4]: 92%
"COc1ccc2c3c(ccc2c1)-c1ccc(CO)cc1OC3c1ccc(OCCN2CCCCC2)cc1 (centres unmarked) [Example 36, {2-Methoxy-5-[4-(2-piperidin-1-yl-ethoxy)-phenyl]-5H-6-oxa-chrysen-8-yl}-methanol]",less stimulatory than tamoxifen,–,–
"OCc1ccc2c(c1)OC(c1ccc(OCCN3CCCCC3)cc1)c1c-2ccc2cc(O)ccc12 (centres unmarked) [Example 39, 8-Hydroxymethyl-5-[4-(2-piperidin-1-yl-ethoxy)-phenyl]-5H-6-oxa-chrysen-2-ol]",less stimulatory than tamoxifen,–,–
"Cl.OCc1ccc(-c2ccc3cc(O)ccc3c2Oc2ccc(OCCN3CCCCC3)cc2)cc1 [Example 41, 6-(4-Hydroxymethyl-phenyl)-5-[4-(2-piperidin-1-yl-ethoxy)-phenoxy]-naphthalen-2-ol, hydrochloride]",less stimulatory than tamoxifen,–,–
COc1ccc2c(Oc3ccc(OCCN4CCCCC4)cc3)c(-c3ccc(C(C)(C)O)cc3)ccc2c1 [Example 44],less stimulatory than tamoxifen,–,–
